In US20250221948A1, “Complex of 3-hydroxybutyric acid and sodium 3-hydroxybutyrate and preparation method thereof” (priority 2022, published 2025):
Like-named read-outs stand apart in the source and are kept apart here.

What was measured:
Assay type in all cases: physicochemical
[1] = Determination of moisture contents with KF moisture meter at different time points (hygroscopicity); conditions: for moisture content of the complex compared with the acid, the sodium salt and their mixture: summary of Tables 2A-2C; for moisture content (%): temperature 23° C., humidity 92.5%; for hygroscopicity of the solid acid: easy to deliquesce
Description: For R-3-hydroxybutyric acid, sodium R-3-hydroxybutyrate, Mixture of R-3-hydroxybutyric acid and sodium R-3-hydroxybutyrate, as well as R-3-hydroxybutyric acid·sodium R-3-hydroxybutyrate complex of Examples 1-6, under a certain condition, KF moisture meter was used to determine the moisture contents at different time points.
(§1) For 3-hydroxybutyric acid, sodium 3-hydroxybutyrate, mixture of 3-hydroxybutyric acid and sodium 3-hydroxybutyrate, as well as 3-hydroxybutyric acid·sodium 3-hydroxybutyrate complex of Examples 7-9, under a certain condition, KF moisture meter was used to determine the moisture contents at different time points.
as §1, with “S-3-hydroxybutyric” for “3-hydroxybutyric”, “S-3-hydroxybutyrate,” for “3-hydroxybutyrate,”, “S-3-hydroxybutyrate” for “3-hydroxybutyrate”, “10-12,” for “7-9,”

[2] = Stability of the solids at different temperatures
Description: For R-3-hydroxybutyric acid, sodium R-3-hydroxybutyrate, mixture of R-3-hydroxybutyric acid and sodium R-3-hydroxybutyrate, as well as R-3-hydroxybutyric acid·sodium R-3-hydroxybutyrate complex of Examples 1-6, the stability was measured at 60° C., 70° C. and 80° C., and the experimental results are shown in Table 3A.
For 3-hydroxybutyric acid, sodium 3-hydroxybutyrate, mixture of 3-hydroxybutyric acid and sodium 3-hydroxybutyrate, as well as 3-hydroxybutyric acid·sodium 3-hydroxybutyrate complex of Examples 7-9, the stability was measured at 60° C., 70° C. and 80° C., and the experimental results are shown in Table 3B.
For S-3-hydroxybutyric acid, sodium S-3-hydroxybutyrate, mixture of S-3-hydroxybutyric acid and sodium S-3-hydroxybutyrate, as well as S-3-hydroxybutyric acid·sodium S-3-hydroxybutyrate complex of Examples 10-12, the stability was measured at 60° C., 70° C. and 80° C., and the experimental results are shown in Table 3C.

[3] = Stability of the solids at different temperatures; remark: listed apart in the source

Structure (SMILES) | hygroscopicity of the complex compared with the acid, the sodium salt and their mixture [1] | moisture content of the complex compared with the acid, the sodium salt and their mixture [1] | moisture content (%) ([1]; 30 min) | moisture content (%) ([1]; 1 h) | moisture content (%) ([1]; 2 h) | moisture content (%) ([1]; 4 h) | moisture content (%) ([1]; 6 h) | moisture content (%) ([1]; 7 h) | moisture content (%) ([1]; 11 h) | moisture content (%) ([1]; 22 h) | Stability [2] | stability of the complex [2] | hygroscopicity of the solid acid [1] | Stability ([2]; 60° C.) | Stability ([2]; 70° C.) | Stability ([2]; 80° C.) | Stability ([3]; 30° C.) | Stability ([3]; 50° C.) | Stability ([3]; 40° C.)
CC(O)CC(=O)O (stereo not shown) [3-hydroxybutyric acid • sodium 3-hydroxybutyrate complex] [3-hydroxybutyric acid·sodium 3-hydroxybutyrate] | obviously superior | significantly lower | 0.61% | 1.18% | 2.05% | 3.38% | 4.99% | 5.52% | 8.73% | 17.63% | unchanged | very high |  |  |  |  |  |  | 
CC(O)CC(=O)O (stereo not shown) [3-hydroxybutyric acid] |  |  | 1.32% | 2.37% | 4.15% | 6.59% | 9.68% | 10.71% | 17.33% | 33.51% |  |  | strong hygroscopicity |  |  |  |  |  | 
C[C@@H](O)CC(=O)O [R-3-hydroxybutyric acid • sodium R-3-hydroxybutyrate complex] [R-3-hydroxybutyric acid·sodium R-3-hydroxybutyrate] | obviously superior | significantly lower | 0.54% | 1.02% | 1.96% | 3.26% | 4.89% | 5.39% | 8.65% | 17.45% | unchanged | very high |  |  |  |  |  |  | 
C[C@@H](O)CC(=O)O [R-3-hydroxybutyric acid] |  |  | 1.13% | 2.25% | 3.96% | 6.46% | 9.52% | 10.56% | 17.22% | 33.34% |  |  | strong hygroscopicity |  |  |  |  |  | 
C[C@H](O)CC(=O)O [S-3-hydroxybutyric acid] |  |  | 1.23% | 2.28% | 4.05% | 6.32% | 9.53% | 10.62% | 17.08% | 32.95% |  |  | strong hygroscopicity | melted | melted | melted | unchanged | melted | 
C[C@H](O)CC(=O)O [S-3-hydroxybutyric acid·sodium S-3-hydroxybutyrate] | obviously superior | significantly lower | 0.71% | 1.38% | 1.85% | 3.28% | 4.79% | 5.32% | 8.43% | 16.93% | unchanged | very high |  |  |  |  |  |  | 
CC(O)CC(=O)[O-].[Na+] (stereo not shown) [Sodium 3-hydroxybutyrate, sodium 3-hydroxybutyrate] |  |  | 1.15% | 2.19% | 3.62% | 5.35% | 7.54% | 8.35% | 12.86% | 24.95% | unchanged |  |  |  |  |  |  |  | 
C[C@@H](O)CC(=O)[O-].[Na+] [Sodium R-3-hydroxybutyrate, sodium R-3-hydroxybutyrate] |  |  | 1.04% | 2.01% | 3.39% | 5.23% | 7.35% | 8.04% | 12.68% | 24.68% | unchanged |  |  |  |  |  |  |  | 
C[C@H](O)CC(=O)[O-].[Na+] [Sodium S-3-hydroxybutyrate, sodium S-3-hydroxybutyrate] |  |  | 1.09% | 2.07% | 3.49% | 5.32% | 7.46% | 8.15% | 12.73% | 24.53% |  |  |  | unchanged | unchanged | unchanged | unchanged | unchanged | unchanged
